US8962263B2, “Methods and compositions for detecting the activation state of multiple proteins in single cells” (The Board of Trustees of the Leland Stanford Junior …, priority 2001, dated 2015)

B1: ICAM-1: recombinant human ICAM-1-FC, soluble LFA-1 ligand (protein)
chain: QTSVSPSKVILPRGGSVLVTCSTSCDQPKLLGIETPLPKKELLLPGNNRKVYELSNVQEDSQPMCYSNCPDGQSTAKTFLTVYWTPERVELAPLPSWQPVGKNLTLRCQVEGGAPRANLTVVLLRGEKELKREPAVGEPAEVTTTVLVRRDHHGANFSCRTELDLRPQGLELFENTSAPYQLQTFVLPATPPQLVSPRVLEVDTQGTVVCSLDGLFPVSEAQVHLALGDQRLNPTVTYGNDSFSAKASVSVTAEDEGTQRLTCAVILGNQSQETLQTVTIYSFPAPNVILTKPEVSEGTEVTVKCEAHPRAKVTLNGVPAQPLGPRAQLLLKATPEDNGRSFSCSATLEVAGQLIHKNQTRELRVLYGPRLDERDCPGNWTWPENSQQTPMCQAWGNPLPELKCLKDGTFPLPIGESVTVTRDLEGTYLCRARSTQGEVTRKVTVNVLSPRYE
modifications: left off: a dimerising Fc or GST
notes: recombinant human ICAM-1-FC, soluble LFA-1 ligand
B2: ICAM-3: recombinant human ICAM3-FC, soluble LFA-1 ligand (protein)
chain: QEFLLRVEPQNPVLSAGGSLFVNCSTDCPSSEKIALETSLSKELVASGMGWAAFNLSNVTGNSRILCSVYCNGSQITGSSNITVYRLPERVELAPLPPWQPVGQNFTLRCQVEDGSPRTSLTVVLLRWEEELSRQPAVEEPAEVTATVLASRDDHGAPFSCRTELDMQPQGLGLFVNTSAPRQLRTFVLPVTPPRLVAPRFLEVETSWPVDCTLDGLFPASEAQVYLALGDQMLNATVMNHGDTLTATATATARADQEGAREIVCNVTLGGERREARENLTVFSFLGPIVNLSEPTAHEGSTVTVSCMAGARVQVTLDGVPAAAPGQPAQLQLNATESDDGRSFFCSATLEVDGEFLHRNSSVQLRVLYGPKIDRATCPQHLKWKDKTRHVLQCQARGNPYPELRCLKEGSSREVPVGIPFFVNVTHNGTYQCQASSSRGKYTLVVVMDIEAGSSH
modifications: left off: a dimerising Fc or GST
notes: recombinant human ICAM3-FC, soluble LFA-1 ligand

Columns and labels:
[1] = test system: PLCg1; experiment: sICAM-2 induced PLCg1 phosphorylation (chemical genetic approach); type: cell-based; settings: sICAM-2 stimulus
Excerpt: (§1) A chemical genetic approach was undertaken to determine the hierarchy of PKC, Pyk2, PLCg1, and Syk activities in response to sICAM-2, stimulus by verifying phosphorylation status of each kinase in the presence of respective chemical inhibitors. Inhibition of PKC with BIM II abrogated phosphorylation of Pyk2, PLCg1, and Syk. Inhibition of PLCg1, by neomycin abrogated phosphorylation of Syk, with no inhibition observed for Pyk2. […] Thus, the upstream signaling events from LFA-1, to Raf-1, appear to involve PKC/Pyk2/PLCg1/Syk. […] We are currently pursuing these complexes in a separate study.

[2] = test system: ezrin; experiment: phosphotyrosine-protein based elisa for ezrin tyrosine phosphorylation upon ICAM-2 ligation; type: cell-based, human; settings: Jurkat cells
Experimental: A) Expression levels of ICAM-2, vary across cell lines of different origins. Quantitative flow cytometry analysis was performed to assess the number of ICAM-2 surface molecules across transformed and untransformed fibroblasts, lymphocytes of T-cell and different B-cell differentiation states and myeloid lineages (see Material and Methods for elaboration). The number of surface molecules/cell is expressed as the mean (bar)+/−SD of triplicate experiments. B) Crosslinking of endogenous ICAM-2, induces ezrin tyrosine phosphorylation and enhanced ICAM-2, interaction. Jurkat cells were crosslinked for ICAM-2 using monoclonal antibody for the indicated times and subjected to immunoprecipitation/immunoblotting as indicated. C) Inhibition of ezrin phosphotyrosine by chemical inhibitors of src and Rho-dependent kinases. D) Ezrin phosphorylation and enhanced interaction with the p85, subunit of PI3K as a function of ICAM-2. Determined as described above. E) PDK-1, activity as a function of ICAM-2, ligation, as described above). F) PI3K and AKT localize to the membrane as a function of ICAM-2, ligation. Membrane/cytosolic fractionation was performed on ICAM-2, ligated Jurkat cells as a function of time and subjected to immunoblotting for PI3K and AKT.
In order to identify upstream kineses capable of tyrosine phosphorylating ezrin as a function of ICAM-2 ligation, we developed a phosphotyrosine-protein based elisa to screen for the inhibition of ezrin tyrosine phosphorylation in vivo by various known inhibitors of protein kineses (Perez and Nolan, manuscript in preparation). […] Given the design of the screen to detect tyrosine residue phosphorylation, we speculate that activation of Rho-dependent processes may be a prerequisite for ezrin to be tyrosine phosphorylated by src (elaborated below).

[3] = test system: NIH3T3; experiment: staurosporine induced apoptosis in ICAM-2 transduced NIH3T3 (annexin-V binding, BrdU TUNEL); type: cell-based, murine
Experimental: A) Pharmacological inhibitors of PI3K abrogate ICAM-2's anti-apoptotic. ICAM-2, or vector transduced BaF3, cells were treated with staurosporine (1, μM) with (unfilled) or without (filled) the addition of 100, nM wortmannin for 24, hours (left bar graph). Apoptosis was determined by nuclear staining and fluorescence microscopy (left bar graph) and by annexin-V binding assay (right bar graph). The proportion of apoptotic cells in each culture without staurosporine was 8%+/−2. The percentage of apoptotic cells is expressed as the mean (bar)+SD of triplicate cultures. ICAM-2, 1CAM2-AC, or vector transduced NIH3T3, were treated with staurosporine ([…]) in the presence or absence of 10, μM LY294002, for 24, hours (right bar graph). DMSO vehicle served as negative control. The percentage of apoptotic cells is expressed as the mean (bar)+/−SD of triplicate cultures. B) Confocal images of PI3K and AKT localization in ICAM-2, (top) or vector control cells (bottom). C) Confocal images of ezrin and the p85, subunit of PI3K (green) localization in ICAM-2, (top) or vector control cells (bottom).
A) The anti-apoptotic effect of ICAM-2, is both wortmannin and LY294002, sensitive. ICAM-2, or vector transduced BaF3, cells were treated with staurosporine (1, μM) with (unfilled) or without (filled) the addition of 100, nM wortmannin for 24 hours. Apoptosis was determined by nuclear staining and fluorescence microscopy (left bar graph) and by annexin-V binding assay (right bar graph). The proportion of apoptotic cells in each culture without staurosporine was 8%±2. The percentage of apoptotic cells is expressed as the mean (bar)±SD of triplicate cultures. ICAM-2, ICAM2-ΔC, or vector transduced NIH3T3, were treated with staurosporine (1, μM) in the presence or absence of 10, μM LY294002, for 24, hours. DMSO vehicle served as negative control. The percentage of apoptotic cells is expressed as the mean (bar)±SD of triplicate cultures. B) ICAM-2, expressing NIH3T3, cells are sensitive to apoptosis in the presence of PI3K inhibitor LY294002. BrdU TUNEL assay was performed in staurosporine (1, μM) or LY294002, (10, μM) treated ICAM-2, ICAM2-ΔC, and control vector transduced NIH3T3, cells. The percentage of apoptotic cells is expressed as the mean (bar)±SD of triplicate cultures.
Apoptosis was determined either by counting pyknotic nuclei, annexin-V binding by flow cytometry, or TUNEL BrdU staining by flow cytometry as indicated. Apoptosis was induced either by staurosporine (1 μm), treatment with anti-mouse Fas (5 μq/ml Santa Cruz Biotechnology (SCB), […] Fas (5 μg/ml Jo2 Biomed) or anti-human Fas (10 ng/ml CH11 Kamiya Biomedical) as indicated in appropriate experiment, IL-3 withdrawal-(24 hrs) or as indicated. For pyknolic nuclei count, NIH3T3 cells were grown on glass coverslips and assayed for apoptosis. Suspension cells were analyzed by nuclear staining with 25 μM acridine orange/25 μm ethidium bromide or 5 μg/ml Hoechst 33342 (Molecular Probes, Eugene, Oreg.). Apoptosis was identified by the presence of characteristic pyknotic nuclei as described (Jacobson and Raff, 1995). At least 5 individual fields were photographed and counted using a Zeiss axioscope fluorescence microscope. For the survival assay 10^6 NIH3T3 cells were plated in 10 cm dishes and incubated overnight at 37° C. The cells were treated with 1 μM staurosporine for 24 hours. The cells were washed and cultured for 24 hours in complete medium. The cells were trypsinized and viable cells counted following trypan blue staining. Untreated cells were counted at the time of treatment. % survival represents (number of viable cells post-treatment)/(number of viable cells pretreatment). FACS based annexin-V-FITC/PI staining was done as described (PharMingen). TUNEL assay was performed as described by manufacturer of Apoptosis BrdU kit (Promega). […]

[4] = test system: Pyk2; experiment: sICAM-2 induced Pyk2 phosphorylation (phospho-tyrosine based ELISA, chemical genetic approach); type: cell-based; settings: for phosphorylation of Pyk2: chemical genetic approach, sICAM-2 stimulus; for sICAM-2 induced Pyk2 phosphorylation: phospho-tyrosine based ELISA
Excerpt: (§2) E) depicts that LFA-1, induced phosphorylation of Pyk2, and Syk is dependent on PKC. We screened for the inhibition of sICAM-2, induced Pyk2, and Syk phosphorylation by chemical inhibitors to tyrosine kinases using a phospho-tyrosine based ELISA. Pyk2, phosphorylation was abrogated in the presence of PKC inhibitors bisindolymaleimide II (BIM II) and staurosporine (STP), in addition to tyrphostin A9, a specific Pyk2, inhibitor. a Pyk2, phosphorylation was also affected by inhibitors of phospholipase Cg (neomycin), inhibitors of Syk (piceatannol), and PKC inhibitor BIM I. Syk phosphorylation was completely abolished by inhibition of Pyk2, PLCg1, and strongly affected by PKC inhibitors. Thus, both Pyk2, and Syk phosphorylations were dependent on PKC activity, while Syk phosphorylation was additionally dependent on PLCg1, and Pyk2, activity. It was not possible to assess specific PKC isozymes by this method.
as §1

[5] = test system: Syk; experiment: sICAM-2 induced Syk phosphorylation (phospho-tyrosine based ELISA, chemical genetic approach); type: cell-based; settings: sICAM-2 stimulus
Excerpt: as §2
A chemical genetic approach was undertaken to determine the hierarchy of PKC, Pyk2, PLCg1, and Syk activities in response to sICAM-2, stimulus by verifying phosphorylation status of each kinase in the presence of respective chemical inhibitors. Inhibition of PKC with BIM II abrogated phosphorylation of Pyk2, PLCg1, and Syk. Inhibition of PLCg1, by neomycin abrogated phosphorylation of Syk, with no inhibition observed for Pyk2. […]

[6] = test system: HL60 cells; experiment: FACS based effector-target killing assay, human PBMC against CFSE labeled HL60 cells; type: cell-based; settings: 10 μg/ml, 50:1 E:T ratio, 4 hrs
Experimental: A) PBMC were either treated with ICAM-2, (10 μg/ml) in the presence of IL-2, for 12, hr and then incubated with CFSE labeled target HL60, cells at a 50:1, E:T ratio for 4, hrs. Remaining HL60, cells were quantified by flow cytometry. B) PBMC were treated with IL-2, (100, U/ml, 12, hrs) and treated with ICAM-1,-2, or 3, FC proteins (10, μg/ml) and used in a cytotoxicity assay as described above. Results are representative of 4, independent experiments.
(§3) Target cell lysis was measured by flow cytoemtric based detection of CFSE labeled HL60 cells. HL60 cells were labeled with 1 μg of CFSE (30 min, 37° C.). Targets were washed twice and mock treated, IL-2 activated (100 U/ml), CD3/CD28 activated (1 μg/ml), or treated with ICAM2 beads or soluble ICAM-1, -2, or 3 (10 μg/ml, 30 min, 37° C.) before plating at 10^4 target cells/well of a 96-well round bottom plate. CTLs were added at 50:1, 25:1, and 12.5:1 E:T ratio, and incubated at 37° C. for 4 hrs. Cells were then processed for multiparameter flow cytometry and intracellular perforin stain. Percent specific lysis was calculated by the following equation: % specific lysis=100-100×(experimental HL60 count/total control HL60 count). HL60 counts were detectable by the CFSE fluorescence. Percent perforin was calculated by the following equation: % perforin=100×[(experimental perforin MFI−isotype mAb MFI)/(total perforin MFI−isotype mAb MFI)]. MFI refers to mean fluorescent intensity of flow cytoemtric based intracellular detection. Cell conjugates were determined by flow cytometry as described (Morgan et al., 2001). Chemical inhibition was done at 10 μM of indicated compound (30 min, 37° C.) prior to stimulation as indicated. All experiments were performed in triplicate.

[7] = test system: CD56 CD8 cytotoxic lymphocyte subsets; experiment: intracellular perforin and granzyme-A in CD56CD8 subsets of human PBMC by flow cytometry; type: cell-based; settings: for granzyme-A negative population: CD56+CD8high population; for changes in intracellular perforin or granzyme-A: CD56+CD8low population; for frequency of the perforin negative population: CD56+CD8med population
Experimental: IL-2, activated PBMC (shown in A-1 and A-3) were mock-treated (IgG) (A-2) , ICAM-1, (A2), ICAM-2, (A4), or ICAM-3, (A4) treated (10, μg/ml of FC fusion protein) for 12 hrs prior to incubation with target HL60, cells at a 50:1, E:T ratio for 4, hrs. Cells were then prepared for flow cytometry with CD8-CY5PE, CD56-PE surface stains, and perforin-CY5, and granzyme-A-FITC intracellular stains. Cells were gated for CD56^+CD8^low, CD56^+CD8^med, CD56^+, CD8^high, CD56^−, CD8^−, , CD56^−-CD8^high, populations as shown in A-1 and A-3 and population frequencies within appropriate gate. […] Results are representative of 3 independent experiments and were similar at 25:1 and 12.5:1 E:T ratios (data not shown). Manual calibration was performed. […] Perforin percentage was calculated from the following equation where MFI equals mean fluorescent intensity: 100×[(MFIexperimental−MFIisotype mAb)/(MFIcontrol−MFlisotype mAb)] Unstimulated cells were used as control.
as §3

Row | Molecule | phosphorylation of PLCg1 [1] | tyrosine phosphorylation of ezrin [2] | ICAM-2 induced survival signal ([3]; PKC isozyme inhibitors, system not specified) | effect on ICAM-2 anti-apoptotic effect, other kinase inhibitors ([3]; cell type not stated, data not shown) | phosphorylation of Pyk2 [4] | sICAM-2 induced Pyk2 phosphorylation [4] | phosphorylation of Syk [5] | target cell lysis of HL60 cells [6] | granzyme-A negative population [7] [%] | changes in intracellular perforin or granzyme-A [7] | frequency of the perforin negative population [7] [%]
1 | CN1CCCC1CCn1cc(C2=C(c3c[nH]c4ccccc34)C(=O)NC2=O)c2ccccc21 (stereo not drawn) [bisindolymaleimide II] | abrogated | minor affects | did not abrogate | not abrogated | abrogated | abrogated | abrogated |  |  |  | 
2 | neomycin |  |  |  |  | no inhibition | affected | abrogated |  |  |  | 
3 | B1 |  |  |  |  |  |  |  | did not initiate as potent a cytotoxic cell response | 4.12 | no significant changes | 13.7
4 | B2 |  |  |  |  |  |  |  | did not initiate as potent a cytotoxic cell response | 3.07 | no significant changes | 19.8
